Activity calls are given as the source filed them. No cut-off for these calls is given here.
Target: Transient receptor potential cation channel subfamily M member 7 (Mus musculus) (UniProt Q923J1)
Test: Inhibition of Tet-induced Flag-tagged mouse TRPM7 expressed in HEK293 cells assessed as inhibition of channel-mediated cell death in presence of Mg2+ incubated for 24 to 48 hrs by propidium iodide uptake assay
Format: cell-based
Set-up: concentration or dose not given beside the values
Conditions: not given

Chain of Transient receptor potential cation channel subfamily M member 7 (Mus musculus) (Q923J1 whole entry): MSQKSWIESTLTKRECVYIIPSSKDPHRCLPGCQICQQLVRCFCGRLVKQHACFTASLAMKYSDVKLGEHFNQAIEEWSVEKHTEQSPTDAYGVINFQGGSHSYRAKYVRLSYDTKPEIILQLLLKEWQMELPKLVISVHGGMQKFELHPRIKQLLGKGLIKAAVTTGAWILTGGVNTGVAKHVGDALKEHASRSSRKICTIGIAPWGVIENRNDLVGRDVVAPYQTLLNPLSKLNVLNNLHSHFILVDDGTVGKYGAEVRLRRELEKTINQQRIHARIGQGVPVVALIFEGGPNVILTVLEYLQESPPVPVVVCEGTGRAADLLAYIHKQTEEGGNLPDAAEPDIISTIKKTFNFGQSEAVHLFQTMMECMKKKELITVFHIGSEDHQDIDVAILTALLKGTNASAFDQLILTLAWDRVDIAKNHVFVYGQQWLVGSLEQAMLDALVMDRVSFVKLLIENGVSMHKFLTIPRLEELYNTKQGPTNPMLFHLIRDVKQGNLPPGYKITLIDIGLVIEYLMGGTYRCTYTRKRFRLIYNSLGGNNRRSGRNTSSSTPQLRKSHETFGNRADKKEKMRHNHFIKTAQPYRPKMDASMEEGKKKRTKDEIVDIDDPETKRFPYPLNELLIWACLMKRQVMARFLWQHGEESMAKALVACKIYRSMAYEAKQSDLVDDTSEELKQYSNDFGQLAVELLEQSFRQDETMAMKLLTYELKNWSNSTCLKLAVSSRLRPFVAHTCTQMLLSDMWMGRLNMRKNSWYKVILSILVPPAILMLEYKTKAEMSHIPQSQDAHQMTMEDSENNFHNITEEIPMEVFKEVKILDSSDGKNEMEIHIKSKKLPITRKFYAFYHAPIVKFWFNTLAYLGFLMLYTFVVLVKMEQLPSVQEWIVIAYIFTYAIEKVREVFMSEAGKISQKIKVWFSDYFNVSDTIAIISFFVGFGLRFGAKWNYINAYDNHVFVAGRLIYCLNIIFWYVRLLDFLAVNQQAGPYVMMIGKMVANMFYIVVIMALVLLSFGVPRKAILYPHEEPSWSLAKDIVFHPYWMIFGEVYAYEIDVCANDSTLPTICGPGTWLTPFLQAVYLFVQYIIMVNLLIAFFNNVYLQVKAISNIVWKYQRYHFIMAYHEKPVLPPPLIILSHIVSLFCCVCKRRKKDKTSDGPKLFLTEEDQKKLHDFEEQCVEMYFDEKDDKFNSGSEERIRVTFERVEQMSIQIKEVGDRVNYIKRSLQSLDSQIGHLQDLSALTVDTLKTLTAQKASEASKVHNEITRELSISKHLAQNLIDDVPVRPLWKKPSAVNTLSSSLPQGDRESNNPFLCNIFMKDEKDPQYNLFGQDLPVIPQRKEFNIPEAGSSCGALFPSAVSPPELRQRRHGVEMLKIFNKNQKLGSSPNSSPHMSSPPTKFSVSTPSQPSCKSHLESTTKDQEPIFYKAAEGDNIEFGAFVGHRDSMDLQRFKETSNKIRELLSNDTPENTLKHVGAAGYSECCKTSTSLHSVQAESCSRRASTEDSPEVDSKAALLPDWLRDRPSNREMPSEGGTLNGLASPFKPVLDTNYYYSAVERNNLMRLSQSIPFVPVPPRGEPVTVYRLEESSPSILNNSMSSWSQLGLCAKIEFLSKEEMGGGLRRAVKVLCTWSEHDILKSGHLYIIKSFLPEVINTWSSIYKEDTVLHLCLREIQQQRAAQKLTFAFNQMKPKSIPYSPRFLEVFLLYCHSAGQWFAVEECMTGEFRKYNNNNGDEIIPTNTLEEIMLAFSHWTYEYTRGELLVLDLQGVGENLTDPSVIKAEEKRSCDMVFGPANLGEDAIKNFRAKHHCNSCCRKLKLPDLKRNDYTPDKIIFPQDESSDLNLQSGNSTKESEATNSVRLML

SMILES | inhibition
O=C1C(c2ccccc2)=C(O)C2C=CC=C3c4ccccc4N1C32 (centres undefined) | Active
COc1cc2c(c(OC)c1OC)-c1ccc(OC)c(=O)cc1[C@@H](NC(C)=O)CC2 | Active
COc1cccc2c1C(=O)c1c(O)c3c(c(O)c1C2=O)C[C@@](O)(C(C)=O)C[C@@H]3O[C@H]1C[C@H](N)[C@H](O)[C@H](C)O1 | Dose-dependent effect
CCn1cnc2c(Nc3cccc(Cl)c3)nc(N[C@@H]3CCCC[C@@H]3N)nc21 (relative stereo) | Dose-dependent effect

Same assay, conditions: concentration not given here

SMILES | inhibition
COc1ccc(C2C3CCc4ccccc4C3=NN2CCOC(=O)Nc2ccc(Cl)cc2)cc1 (centres undefined) | 60%
O=C(CSC1CN(C(c2ccccc2)c2ccccc2)C1)N/N=C/c1ccncc1 | 50%
Cc1ccc(Cn2nc(C(=O)O/N=C(\N)c3cccc(C(F)(F)F)c3)cc2C)cc1 | < 30%
Brc1ccc2nc(C34CC5CC(CC(C5)C3)C4)cn2c1 | 60%
CSC1=N/C(=C\c2ccccc2O)C(=O)N1Cc1ccco1 | < 30%
O=C(O)C1Cc2ccccc2CN1 (centres undefined) | < 30%
O=C(CSc1nccc(-c2cc(-c3ccc(Cl)cc3Cl)no2)n1)Nc1ccc(Cl)cc1 | 30%
CC(=O)N1N=C(c2ccccc2O)CC1c1ccc(Cl)cc1Cl (centres undefined) | < 30%
CCc1cc2c(Sc3nnc(N)s3)ncnc2s1 | 60%
CN1CCN(NC(NC(=O)c2cccnc2)(C(F)(F)F)C(F)(F)F)CC1 | < 30%
CCCCCCCCOc1ccc(S)nn1 | < 30%
O=C(/C=C/c1ccc(OC(F)(F)F)cc1)NCc1ccco1 | 60%
CC(C)(C)c1ccc(-c2nc(CSc3ccc(Cl)cc3)no2)s1 | 60%
O=S1(=O)CC=C(S(=O)(=O)c2ccccc2)C1 | < 30%
CCc1ccc2[nH]c(C(=O)N(C)c3ccc(F)cc3F)cc2c1 | < 30%
CC(=O)Nc1ccc(S(=O)(=O)Nc2ccccc2Oc2ccc(Cl)cc2Cl)cc1 | 80%
COC(=O)C1=CNC(CC(CC=O)c2ccc(F)cc2)=CC1c1ccc(N(C)C)cc1Cl (centres undefined) | < 30%
N#CC1=C(N)Oc2c3c(c4ccccc4c2C1c1ccc(C(F)(F)F)cc1)C(c1ccc(C(F)(F)F)cc1)C(C#N)=C(N)O3 (centres undefined) | < 30%
Cc1ccc(-c2nc(NC(=O)Nc3ccccc3)sc2C)cc1Cl | < 30%
COc1ccc2c(c1)CCCN2C(=O)c1sc2ccccc2c1Cl | 60%
O=c1ccsn1-c1ccc(F)c(Cl)c1 | < 30%
CS/C(=N/C(C)(C)C)Nc1ccccc1Cl | < 30%
O=C(O/N=C(\Cn1nnc(N2CCCCC2)n1)c1ccc(Cl)cc1)c1ccccc1Cl | < 30%
CSc1scc(NC(=O)Nc2cccc(Cl)c2)c1S(=O)(=O)C(C)C | 60%
CCCCCCCSc1nnc[nH]1 | 70%

SMILES | inhibition
O=c1[nH]c2c(Cl)c(Cl)ccc2c(O)c1-c1ccccc1 | 60%
CN(/N=C/Cc1nnnn1-c1ccc(Cl)cc1)c1ccccc1 | < 30%
CC(=O)OC[C@H]1OC(OC(C)(C)C)[C@H](OC(C)=O)[C@@H](OC(C)=O)[C@@H]1OC(C)=O (some centres undefined) | 40%
CCC1(c2cccc(OC)c2)CCCC(=O)NC1 (centres undefined) | < 30%
Cc1onc(-c2c(Cl)cccc2Cl)c1C(=O)Nc1cccc2nsnc12 | 30%
COc1cccc(/C=C2/C=C(C3CCCS3)OC2=O)c1OC (centres undefined) | < 30%
CN(C)C=O.O=C(Nc1nnc(Sc2ccnc3cc(Cl)ccc23)s1)c1sc2ccccc2c1Cl | 80%
CC(=O)C(C#N)c1nc(-c2ccc(F)cc2)cs1 (centres undefined) | 70%
CO[C@@H]1O[C@@H]2CO[C@H](COC(C)=O)[C@]3(OC(C)=O)CO[C@H](OC2[C@H](OC(C)=O)[C@H]1OC(C)=O)[C@@H](OC(C)=O)[C@@H]3OC(C)=O (some centres undefined) | 40%
OC1(C(F)(F)F)CC(c2cccs2)=NO1 (centres undefined) | 30%
FC(F)(F)c1ccccc1NC(=S)N1CCCN(c2nc3ccc(Cl)cc3s2)CC1 | 60%
CCOC(=O)c1nc(COc2ccccc2Cl)[nH]c(=O)c1C | < 30%
O=C1NC(=S)S/C1=C/c1ccc(Cl)cc1Cl | 40%
COc1ccc(S(=O)(=O)N2CCC(O)(c3ccc(Cl)cc3)CC2)cc1OC | 40%
Cn1c(SCC(=O)Nc2cccc3nsnc23)nnc1C(F)(F)F | < 30%
CCNC(=O)C(Cc1ccccc1)NC(=O)OC(C)(C)C (centres undefined) | 30%
C/C(=N\Nc1c(C)cccc1Cl)c1ccc(Oc2ncc([N+](=O)[O-])s2)cc1 | < 30%
O=[N+]([O-])c1ccc(Nc2cccc(F)c2)c2nonc12 | 40%
COc1ccc(NC(=O)CSc2nnc(C)n2-c2ccc(OCc3ccccc3)cc2)cc1 | 50%
Clc1cccc2nnsc12 | 30%
CCCCCc1ccc(S(=O)(=O)Nc2ccccc2C(=O)NCC2CC2)cc1 | 60%
CC(C)Cc1ccc(C(C)c2nnc(-c3cccc([N+](=O)[O-])c3)o2)cc1 (centres undefined) | 50%
COc1cc(OC)cc(C(C)(C)OC(=O)NCCC(=O)O)c1 | < 30%
O=[N+]([O-])c1ccc(-n2ncc(-c3nc(-c4ccc(Cl)cc4)no3)c2C(F)(F)F)cc1 | < 30%
Cc1cc(-c2nnc(C(F)(F)F)o2)ccc1NC(=S)Nc1ccc(Cl)cc1Cl | 70%

SMILES | inhibition
O=C(c1cc(Br)cc2c1OCC2)N1CCOCC1 | < 30%
CSc1nccc(-c2ccc(S(=O)(=O)n3nc(C)c(Br)c3C)s2)n1 | < 30%
O=C(Nc1ccc(Oc2ccccc2)cc1)Nc1cccs1 | 70%
Oc1c(Cl)cc(Cl)cc1/C=N/c1ccc(Cl)cn1 | 40%
COc1ccccc1N1CCN(Cc2c[nH]c(-c3ccccc3)n2)CC1 | < 30%
CSC(SC)=C(C#N)C(=O)c1ccccc1Cl | < 30%
Cc1onc(-c2c(Cl)cccc2Cl)c1/C=C1/C(=O)Nc2ccccc21 | 30%
Cn1c(CN2C(=O)CSc3ccc(C(F)(F)F)cc32)nnc1SCC(=O)c1ccccc1 | < 30%
CNC(=O)c1cc([N+](=O)[O-])cc2c1-c1ccc([N+](=O)[O-])cc1C2=O | < 30%
Cc1cc(OCc2c(C)c(C)c(C)c(C)c2C)c2c(Cl)ccc(C)c2n1 | 40%
COc1ccccc1N1CCN(Cc2c[nH]nc2-c2ccccc2)CC1 | 80%
COc1ccc(Nc2cc(=O)n(-c3ccccc3)c3c2c(=O)n(C)c(=O)n3C)cc1 | 60%
FC(F)(F)c1cc(Oc2ccc(Cl)cc2)ccc1-c1ncc(-c2cccc(Cl)c2)o1 | 70%
O=C1CC2Sc3ccccc3N=C2N1Cc1ccccn1 (centres undefined) | < 30%
CCOC(=O)C(C#N)Cc1c(C)c(C)c(C)c(C)c1C (centres undefined) | < 30%
O=S(=O)(CCN1CCC(n2cccc2)CC1)c1ccc(F)cc1 | 40%
CC1(C)CC(=O)c2c(SCCOC(=O)Nc3cccc(Cl)c3)sc(C#N)c2C1 | < 30%
CN(C)c1cccc(N(C)C)c1CNC(=O)c1ccc(Cl)cc1 | 80%
COc1ccc(-c2[nH]ncc2CN2CCC(O)(c3ccc(Cl)cc3)CC2)cc1 | < 30%
Cc1c(-c2nc(-c3ccc([N+](=O)[O-])o3)no2)n(C)oc1=O | < 30%
O=C(Oc1ccc([N+](=O)[O-])cc1)c1c(Cl)cccc1Cl | 50%
COC(=O)C(O)(c1ccc(NC(=O)Nc2ccc(Cl)cc2)cc1)C(F)(F)F (centres undefined) | 50%
Cc1nc(N/C=N/O)c(Br)cc1Br | 30%
Cc1cc(C(=O)NNC(=O)Nc2ccc(Cl)cc2)no1 | 30%
Cc1ccc([N+](=O)[O-])c(C(=O)NNC(=S)Nc2cccc(Cl)c2)c1 | 60%

From ChEMBL document CHEMBL3727350, “Agents and methods for treating ischemic and other diseases” (2014)
